The results in this text go back to patent publication US20230203098A1, “HUMAN TRANSFERRIN RECEPTOR BINDING PEPTIDE” (priority 2020, published 2023).

Like-named read-outs stand apart in the source and are kept apart here. Where a SMILES comes first, the peptide text is derived from it. Bridges are numbered along the chain shown (N, C = ends). [ ]: non-standard residue; d: D form. NMePhe(3-Cl) = CN[C@@H](Cc1cccc(Cl)c1)C(=O)O; NMeW = CN[C@@H](Cc1c[nH]c2ccccc12)C(=O)O; Lys(N3) = [N-]=[N+]=NCCCC[C@H](N)C(=O)O; NMeY = CN[C@@H](Cc1ccc(O)cc1)C(=O)O

This experiment deals with transferrin receptor (hTfR) (Homo sapiens, UniProt P02786). Put plainly: Intermolecular interaction evaluation test between transferrin receptor (hTfR) and peptide by surface plasmon resonance (SPR). In kind it is binding. The method, boiled down: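 Receptor was Ni-captured and EDC/NHS-fixed on an NTA chip; running buffer HEPES pH 8.0 with NaCl, Tween 20, BSA and 1.0% DMSO.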
transferrin receptor (hTfR), sequence (P02786 whole entry): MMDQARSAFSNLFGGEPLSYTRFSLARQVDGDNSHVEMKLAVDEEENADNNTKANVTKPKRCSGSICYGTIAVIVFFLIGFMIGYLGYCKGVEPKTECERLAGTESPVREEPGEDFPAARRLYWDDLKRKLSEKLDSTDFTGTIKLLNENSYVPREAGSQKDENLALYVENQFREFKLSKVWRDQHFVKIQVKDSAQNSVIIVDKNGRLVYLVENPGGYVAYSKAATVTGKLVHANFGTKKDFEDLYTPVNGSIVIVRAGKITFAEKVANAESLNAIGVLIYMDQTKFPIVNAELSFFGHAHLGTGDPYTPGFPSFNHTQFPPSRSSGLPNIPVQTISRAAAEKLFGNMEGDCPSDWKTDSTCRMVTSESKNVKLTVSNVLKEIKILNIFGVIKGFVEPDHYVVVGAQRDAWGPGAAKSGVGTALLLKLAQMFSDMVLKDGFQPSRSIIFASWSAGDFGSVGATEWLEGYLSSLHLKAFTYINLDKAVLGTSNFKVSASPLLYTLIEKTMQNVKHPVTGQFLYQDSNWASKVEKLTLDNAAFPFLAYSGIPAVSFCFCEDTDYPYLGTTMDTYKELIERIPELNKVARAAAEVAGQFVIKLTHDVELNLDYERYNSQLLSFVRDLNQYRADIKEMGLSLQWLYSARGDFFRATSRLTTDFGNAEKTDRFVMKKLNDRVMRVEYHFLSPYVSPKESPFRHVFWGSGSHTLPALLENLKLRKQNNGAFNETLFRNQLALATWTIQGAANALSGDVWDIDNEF
A general note: SPR reads the build-up and loss of mass on a sensor chip optically.

The mark [1] stands for this setting: surface plasmon resonance, hTfR, read-out: KD value for hTfR by SPR (class symbol).
Where [2] appears, read: surface plasmon resonance, peptide vs hTfR, read-out: KD value, hTfR binding by SPR (class symbol).
The mark [3] stands for this setting: hTfR binding by SPR, hTfR No. 894 variant peptides, linker-added peptides and payload conjugates (Table 2), read-out: KD value obtained from the SPR measurement.

As a reminder, the Kd is the equilibrium constant for the complex coming apart. For the compound `CC[C@H](C)[C@@H]1NC(=O)[C@H](Cc2ccc(O)cc2)NC(=O)[C@H](Cc2ccc(O)cc2)NC(=O)[C@H](CC(N)=O)NC(=O)[C@H](CCc2ccccc2)NC(=O)[C@H](C(C)C)NC(=O)[C@H](Cc2ccccc2)N(C)C(=O)[C@H](C(C)C)NC(=O)[C@H](C)NC(=O)CSC[C@@H](C(=O)NCCOCCOCCOCCOCCOCCOCCOCCOCCOCCOCCOCCOCCC(N)=O)NC(=O)[C@H](Cc2ccc(O)cc2)N(C)C(=O)[C@H](Cc2ccc(O)cc2)NC(=O)[C@H](CCCNC(=N)N)NC(=O)[C@H](CCCNC(=N)N)NC(=O)[C@H]([C@@H](C)CC)NC1=O` [compound 128], the Kd (SPR, hTfR No. 894 variants with PEG12c linker (Table 2), read-out: KD) lay in the range of 1 to 100 nM.

Take `CC[C@H](C)[C@@H]1NC(=O)[C@H](Cc2ccc(OC)cc2)NC(=O)[C@H](Cc2ccc(O)cc2)NC(=O)[C@H](CC(N)=O)NC(=O)[C@H](Cc2c[nH]c3ccccc23)N(C)C(=O)[C@H](C(C)C)NC(=O)[C@H](Cc2cccc(Cl)c2)N(C)C(=O)[C@H](C(C)C)NC(=O)[C@H](C)NC(=O)CSC[C@@H](C(N)=O)NC(=O)[C@H](Cc2ccc(O)cc2)N(C)C(=O)[C@H](CCC(=O)N[C@H](CCC(=O)O)C(=O)O)NC(=O)[C@@H](CCCNC(=N)N)NC(=O)[C@H](CCCNC(=N)N)NC(=O)[C@H]([C@@H](C)CC)NC1=O` [compound 391]: the Kd under setting [1] lay within 1 to 100 nM.

Regarding `CC[C@H](C)[C@@H]1NC(=O)[C@H](Cc2ccc(OC)cc2)NC(=O)[C@H](Cc2ccc(O)cc2)NC(=O)[C@H](CC(N)=O)NC(=O)[C@H](Cc2c[nH]c3ccccc23)NC(=O)[C@H](C(C)C)NC(=O)[C@H](Cc2cccc(Cl)c2)N(C)C(=O)[C@H](C(C)C)NC(=O)[C@H](C)NC(=O)CSC[C@@H](C(=O)NCC(=O)NCC(=O)N[C@@H](CO)C(=O)NCC(=O)N[C@@H](CO)C(=O)NCC(=O)N[C@@H](CCCCN=[N+]=[N-])C(N)=O)NC(=O)[C@H](Cc2ccc(O)cc2)N(C)C(=O)[C@H](Cc2ccccc2)NC(=O)[C@@H](CCCNC(=N)N)NC(=O)[C@H](CCCCN)NC(=O)[C@H]([C@@H](C)CC)NC1=O` [compound 314] ({CH2CO}-AV[NMePhe(3-Cl)]VWNYY(Me)IIK[dR]F[NMeY]CGGSGSG[Lys(N3)]-NH2; thioether N-15; C-terminus assumed), the dissociation constant Kd under setting [2] fell in the range of 1 to 100 nM.

For the compound `CC[C@H](C)[C@@H]1NC(=O)[C@H](Cc2ccc(OC)cc2)NC(=O)[C@H](Cc2ccc(O)cc2)NC(=O)[C@H](CC(N)=O)NC(=O)[C@H](Cc2c[nH]c3ccccc23)N(C)C(=O)[C@H](C(C)C)NC(=O)[C@H](Cc2cccc(Cl)c2)N(C)C(=O)[C@H](C(C)C)NC(=O)[C@H](C)NC(=O)CSC[C@@H](C(=O)N[C@H](CCC(=O)O)C(=O)N[C@H](CCC(=O)O)C(N)=O)NC(=O)[C@H](Cc2ccc(O)cc2)N(C)C(=O)[C@H](Cc2ccccc2)NC(=O)[C@@H](CCCNC(=N)N)NC(=O)C(C)(C)NC(=O)[C@H]([C@@H](C)CC)NC1=O` [compound 356], the Kd under setting [1] lay in the range of 1 to 100 nM. For `CC[C@H](C)[C@@H]1NC(=O)[C@H](Cc2ccc(O)cc2)NC(=O)[C@H](Cc2ccc(O)cc2)NC(=O)[C@H](CC(N)=O)NC(=O)[C@H](Cc2c[nH]c3ccccc23)N(C)C(=O)[C@H](C(C)C)NC(=O)[C@H](Cc2ccccc2)N(C)C(=O)[C@H](C(C)C)NC(=O)[C@H](C)NC(=O)CSC[C@@H](C(=O)NCC(=O)NCC(=O)N[C@@H](CCCNC(=N)N)C(=O)N[C@@H](CO)C(=O)N[C@@H](CCC(=O)O)C(=O)N[C@@H](CO)C(=O)N[C@@H](CCCCNC(=O)C2CCC(CN3C(=O)C=CC3=O)CC2)C(N)=O)NC(=O)[C@H](Cc2ccc(O)cc2)N(C)C(=O)[C@H](Cc2ccc(O)cc2)NC(=O)[C@H](CCCNC(=N)N)NC(=O)[C@H](CCCNC(=N)N)NC(=O)[C@H]([C@@H](C)CC)NC1=O` (stereo partly shown) [compound 199], the dissociation constant Kd under setting [3] was 1 to 100 nM. Consider `CC[C@H](C)[C@@H]1NC(=O)[C@H](Cc2ccc(OCC(=O)O)cc2)NC(=O)[C@H](Cc2ccc(O)cc2)NC(=O)[C@H](CC(N)=O)NC(=O)[C@H](Cc2c[nH]c3ccccc23)N(C)C(=O)[C@H](C(C)C)NC(=O)[C@H](Cc2cccc(Cl)c2)N(C)C(=O)[C@H](C(C)C)NC(=O)[C@H](C)NC(=O)CSC[C@@H](C(N)=O)NC(=O)[C@H](Cc2ccc(O)cc2)N(C)C(=O)[C@H](Cc2ccccc2)NC(=O)[C@@H](CCCNC(=N)N)NC(=O)[C@H](CCCNC(=N)N)NC(=O)[C@H]([C@@H](C)CC)NC1=O` [compound 320], for which the equilibrium dissociation constant (Kd) under setting [2] was in the range of 1 to 100 nM. `CC[C@H](C)[C@@H]1NC(=O)[C@H](Cc2ccc(O)cc2)NC(=O)[C@H](Cc2ccc(O)cc2)NC(=O)[C@H](CC(N)=O)NC(=O)[C@H](Cc2c[nH]c3ccccc23)NC(=O)[C@H](C(C)C)NC(=O)[C@H](Cc2ccccc2)N(C)C(=O)[C@H](C(C)C)NC(=O)[C@H](C)NC(=O)CSC[C@@H](C(=O)NCC(=O)NCC(=O)N[C@@H](CO)C(=O)N[C@@H](CCCCNC(=O)C2CCC(CN3C(=O)C=CC3=O)CC2)C(N)=O)NC(=O)[C@H](Cc2ccc(O)cc2)N(C)C(=O)[C@H](Cc2ccc(O)cc2)NC(=O)[C@H](CCCNC(=N)N)NC(=O)[C@H](CCCNC(=N)N)NC(=O)[C@H]([C@@H](C)CC)NC1=O` (stereo partly shown) [compound 194]: the Kd under setting [3] lay in the range of 1 to 100 nM. As to `CC[C@H](C)[C@@H]1NC(=O)[C@@H]2CCCCNC(=O)[C@H]3CCCN3C(=O)C[C@H](NC(=O)[C@H](C(C)C)NC(=O)[C@H](C)NC(=O)CSC[C@@H](C(N)=O)NC(=O)[C@H](Cc3ccc(O)cc3)N(C)C(=O)[C@H](Cc3ccc(O)cc3)NC(=O)[C@H](CCCNC(=N)N)NC(=O)[C@H](CCCNC(=N)N)NC(=O)[C@H]([C@@H](C)CC)NC1=O)C(=O)N[C@@H](C(C)C)C(=O)N(C)[C@@H](Cc1c[nH]c3ccccc13)C(=O)N[C@@H](CC(N)=O)C(=O)N[C@@H](Cc1ccc(O)cc1)C(=O)N2` [compound 414] ({CH2CO}-AVDV[NMeW]NYKIIRRY[NMeY]C-NH2; linker 3-8 via dP; thioether N-15), the Kd (surface plasmon resonance, peptide vs hTfR, read-out: KD value for hTfR by SPR (class symbol)) was in the range of 1 to 100 nM.

`CC[C@H](C)[C@@H]1NC(=O)[C@H](Cc2ccc(O)cc2)NC(=O)[C@H](Cc2ccc(O)cc2)NC(=O)[C@H](CC(N)=O)NC(=O)[C@H](Cc2c[nH]c3ccccc23)NC(=O)[C@H](C(C)C)NC(=O)[C@H](Cc2ccccc2)NC(=O)[C@H](C(C)C)NC(=O)[C@H](CCC(=O)O)NC(=O)CSC[C@@H](C(=O)NCCOCCOCCOCCOCCOCCOCCOCCOCCOCCOCCOCCOCCC(=O)NN)NC(=O)[C@H](Cc2ccc(O)cc2)N(C)C(=O)[C@H](Cc2ccc(O)cc2)NC(=O)[C@H](CCCNC(=N)N)NC(=O)[C@H](CCCNC(=N)N)NC(=O)[C@H]([C@@H](C)CC)NC1=O` [compound 218]: the dissociation constant Kd (SPR, peptides, linker-added peptides and FITC conjugates, Patent ID 203-230, read-out: KD) was 1 to 100 nM. `CC[C@H](C)[C@@H]1NC(=O)[C@H](Cc2ccc(OC)cc2)NC(=O)[C@H](Cc2ccc(O)cc2)NC(=O)[C@H](CC(N)=O)NC(=O)[C@H](Cc2c[nH]c3ccccc23)N(C)C(=O)[C@H](C(C)C)NC(=O)[C@H](Cc2cccc(Cl)c2)N(C)C(=O)[C@H](C(C)C)NC(=O)[C@H](C)NC(=O)CSC[C@@H](C(=O)N[C@H](CCC(=O)O)C(=O)O)NC(=O)[C@H](Cc2ccc(O)cc2)N(C)C(=O)[C@H](Cc2ccccc2)NC(=O)[C@H](CCCNC(=N)N)NC(=O)[C@H](CCCNC(=N)N)NC(=O)[C@H]([C@@H](C)CC)NC1=O` [compound 387]: under setting [1], the Kd lay within 1 to 100 nM. `CC[C@H](C)[C@@H]1NC(=O)[C@H](Cc2ccc(OC)cc2)NC(=O)[C@H](Cc2ccc(O)cc2)NC(=O)[C@H](CC(N)=O)NC(=O)[C@H](Cc2cn(CC(=O)O)c3ccccc23)NC(=O)[C@H](C(C)C)NC(=O)[C@H](Cc2cccc(Cl)c2)N(C)C(=O)[C@H](C(C)C)NC(=O)[C@H](C)NC(=O)CSC[C@@H](C(N)=O)NC(=O)[C@H](Cc2ccc(O)cc2)N(C)C(=O)[C@H](Cc2ccccc2)NC(=O)[C@@H](CCCNC(=N)N)NC(=O)[C@H](CCCNC(=N)N)NC(=O)[C@H]([C@@H](C)CC)NC1=O` [compound 306]: the dissociation constant Kd under setting [2] fell in the range of 1 to 100 nM. As to `CC[C@H](C)[C@@H]1NC(=O)[C@H](Cc2ccc(O)cc2)NC(=O)[C@H](Cc2ccc(O)cc2)NC(=O)[C@H](CC(N)=O)NC(=O)[C@H](Cc2c[nH]c3ccccc23)NC(=O)[C@H](C(C)C)NC(=O)[C@H](Cc2ccccc2)N(C)C(=O)[C@H](C(C)C)NC(=O)[C@H](C)NC(=O)CSC[C@@H](C(=O)NCC(=O)NCC(=O)N[C@@H](CO)C(=O)N[C@@H](CO)C(=O)N[C@@H](CCCCNC(=O)C2CCC(CN3C(=O)C=CC3=O)CC2)C(N)=O)NC(=O)[C@H](Cc2ccc(O)cc2)N(C)C(=O)[C@H](Cc2ccc(O)cc2)NC(=O)[C@H](CCCNC(=N)N)NC(=O)[C@H](CCCNC(=N)N)NC(=O)[C@H]([C@@H](C)CC)NC1=O` (stereo partly shown) [compound 193], the dissociation constant (Kd) under setting [3] lay in the range of 1 to 100 nM. In the case of `CC[C@H](C)[C@@H]1NC(=O)[C@H](Cc2ccc(OC)cc2)NC(=O)[C@H](Cc2ccc(O)cc2)NC(=O)[C@H](CC(N)=O)NC(=O)[C@H](Cc2c[nH]c3ccccc23)N(C)C(=O)[C@H](C(C)C)NC(=O)[C@H](Cc2cccc(Cl)c2)N(C)C(=O)[C@H](CCC(=O)O)NC(=O)[C@H](C)NC(=O)CSC[C@@H](C(=O)N[C@H](CCC(=O)O)C(=O)NCC(=O)NCC(=O)NCC(=O)N[C@@H](CO)C(=O)N[C@@H](CO)C(=O)N[C@@H](CS)C(N)=O)NC(=O)[C@H](Cc2ccc(O)cc2)N(C)C(=O)[C@H](Cc2ccccc2)NC(=O)[C@@H](CCCNC(=N)N)NC(=O)[C@H](CCCNC(=N)N)NC(=O)[C@H]([C@@H](C)CC)NC1=O` [compound 235], the Kd (binding to hTfR by SPR, Table 2 peptides, read-out: KD value (SPR) class) was 100 to 1000 nM.
